Several values for one entry are separate records, joined by “and”; a condition that tells them apart may be missing. Equal entries are not always repeated. Entries after “also recorded” stand apart in the source; their conditions may differ. Where two headings read alike, the source gives them in different places.
Key:
KCNQ5 [1] = molecular target: T1, KCNQ5 (Homo sapiens, UniProt Q9NR82); test: TEVC of homomeric KCNQ5 expressed in Xenopus oocytes; assay type: cell-based; details: dose response
Text: (§1) We generated cRNA transcripts encoding human KCNQ1, KCNQ2, KCNQ3, KCNQ4, KCNQ5 or GLRA1 (NM_001146040) (GenScript, Piscataway, NJ, USA) by in vitro transcription using the T7 polymerase mMessage mMachine kit (Thermo Fisher Scientific), after vector linearization, from cDNA sub-cloned into plasmids incorporating Xenopus laevis β-globin 5′ and 3′ UTRs flanking the coding region to enhance translation and cRNA stability. We quantified cRNA by spectrophotometry. We generated mutant KCNQ2 and KCNQ3 cDNAs by site-directed mutagenesis using a QuikChange kit (Stratagene, San Diego, CA) and prepared the corresponding cRNAs as above. We injected defolliculated stage V and VI Xenopus laevis oocytes (Ecocyte Bioscience, Austin, TX and Xenoocyte, Dexter, MI) with KCNQ channel α subunit (5-20 ng) or GLRA1 (20 ng) cRNAs. We incubated the oocytes at 16 °C in Barth’s saline solution (Ecocyte Bioscience) containing penicillin and streptomycin, with daily washing, for 2–5 days prior to two-electrode voltage-clamp (TEVC) recording.
(§2) We performed TEVC at room temperature using an OC-725C amplifier (Warner Instruments, Hamden, CT) and pClamp10 software (Molecular Devices, Sunnyvale, CA) 2–5 days after cRNA injection as described in the section above. For recording, oocytes were placed in a small-volume oocyte bath (Warner) and viewed them with a dissection microscope. Chemicals were sourced from Sigma, Matrix Scientific and Santa Cruz. […] All stock solutions were diluted in bath solution on the day of experiments. KCNQ2/3 channel activation was screened for using either 30 µM or 100 µM concentrations of each of the six compounds, then dose responses were conducted as appropriate. […] Currents were recorded in response to voltage pulses between −120 or −80 mV and + 40 mV at 20 mV intervals from a holding potential of −80 mV, to yield current-voltage relationships, current magnitude, and for quantifying activation rate. We analyzed data using Clampfit (Molecular Devices) and Graphpad Prism software (GraphPad, San Diego, CA, USA); values are stated as mean ± SEM. […]

KCNQ4 = KCNQ4 (Homo sapiens, UniProt P56696); test: TEVC of homomeric KCNQ4 expressed in Xenopus oocytes; assay type: cell-based; details: for effects on KCNQ4: dose response
Text: as §1
(§3) We performed TEVC at room temperature using an OC-725C amplifier (Warner Instruments, Hamden, CT) and pClamp10 software (Molecular Devices, Sunnyvale, CA) 2–5 days after cRNA injection as described in the section above. For recording, oocytes were placed in a small-volume oocyte bath (Warner) and viewed them with a dissection microscope. Chemicals were sourced from Sigma, Matrix Scientific and Santa Cruz. […] All stock solutions were diluted in bath solution on the day of experiments. KCNQ2/3 channel activation was screened for using either 30 µM or 100 µM concentrations of each of the six compounds, then dose responses were conducted as appropriate. Bath solution was (in mM): 96 NaCl, 4 KCl, 1 MgCl2, 1 CaCl2, 10 HEPES (pH 7.6). Compounds were introduced into the oocyte recording bath by gravity perfusion at a constant flow of 1 ml per minute for 3 min prior to recording. Pipettes were of 1–2 MΩ resistance when filled with 3 M KCl. Currents were recorded in response to voltage pulses between −120 or −80 mV and + 40 mV at 20 mV intervals from a holding potential of −80 mV, to yield current-voltage relationships, current magnitude, and for quantifying activation rate. We analyzed data using Clampfit (Molecular Devices) and Graphpad Prism software (GraphPad, San Diego, CA, USA); values are stated as mean ± SEM. We plotted raw or normalized tail currents versus prepulse voltage and fitted with a single Boltzmann function:1 g=(A1−A2)/1+exp(V12−V)∕VS+A2, where g is the normalized tail conductance, A1 is the initial value at −∞, A2 is the final value at +∞, V1/2 is the half-maximal voltage of activation and Vs the slope factor. Activation, deactivation, wash-in and washout kinetics were fitted with single exponential functions to yield a τ value.

KCNQ2/3 [2] = molecular target: T2, KCNQ2/3 (Homo sapiens, UniProt O43525+O43526); test: TEVC of KCNQ2/3 channels expressed in Xenopus oocytes; assay type: cell-based; details: TEVC in oocytes; for EC50: shift in voltage dependence of activation (ΔV0.5act)
Text: as §1, with “We generated mutant KCNQ2 and KCNQ3 cDNAs by site-directed mutagenesis using a QuikChange kit (Stratagene, San Diego, CA) and prepared the corresponding cRNAs as above.” left out
as §3, with “For” for “We performed TEVC at room temperature using an OC-725C amplifier (Warner Instruments, Hamden, CT) and pClamp10 software (Molecular Devices, Sunnyvale, CA) 2–5 days after cRNA injection as described in the section above. For”

KCNQ2 [3] = molecular target: T3, KCNQ2 (Homo sapiens, UniProt O43526); test: TEVC of homomeric KCNQ2 expressed in Xenopus oocytes; assay type: cell-based
Text: as §1, with “We generated mutant KCNQ2 and KCNQ3 cDNAs by site-directed mutagenesis using a QuikChange kit (Stratagene, San Diego, CA) and prepared the corresponding cRNAs as above.” left out
as §3, with “For” for “We performed TEVC at room temperature using an OC-725C amplifier (Warner Instruments, Hamden, CT) and pClamp10 software (Molecular Devices, Sunnyvale, CA) 2–5 days after cRNA injection as described in the section above. For”

KCNQ1 [4] = molecular target: T4, KCNQ1 (Homo sapiens, UniProt P51787); test: TEVC of homomeric KCNQ1 expressed in Xenopus oocytes; assay type: cell-based
Text: as §1, §2

KCNQ3* [5] = molecular target: T5, KCNQ3* (Homo sapiens, UniProt O43525, A315T); test: TEVC of homomeric KCNQ3* (A315T KCNQ3 mutant) expressed in Xenopus oocytes; assay type: cell-based; details: dose response
Text: We next validated the in silico predictions using two-electrode voltage clamp of homomeric neuronal KCNQ2-5 channel isoforms expressed in Xenopus laevis oocytes. […] As in previous studies[8],[10], we used the A315T KCNQ3 mutant (KCNQ3*) that ensures large enough currents to accurately quantify voltage dependence and pharmacology of homomeric KCNQ3[16].
as §1
as §3, with “We plotted raw or normalized tail currents versus prepulse voltage and fitted with a single Boltzmann function:1 g=(A1−A2)/1+exp(V12−V)∕VS+A2, where g is the normalized tail conductance, A1 is the initial value at −∞, A2 is the final value at +∞, V1/2 is the half-maximal voltage of activation and Vs the slope factor. Activation, deactivation, wash-in and washout kinetics were fitted with single exponential functions to yield a τ value.” left out

KCNQ2 [6] = molecular target: T3, KCNQ2; design: method as in PMID 30021858; details: cited from earlier work
KCNQ5 [7] = molecular target: T1, KCNQ5; design: method as in PMID 29748663; details: cited from earlier work
KCNQ3* [8] = molecular target: T5, KCNQ3*; design: method as in PMID 29748663; details: cited from earlier work
KCNQ3* [9] = molecular target: T5, KCNQ3*; test: [3H]GABA binding and competition, oocytes expressing KCNQ3*
Procedure: (§4) Oocytes were then washed four times in 16 °C ND96, transferred to individual wells in a 96 well plate and lysed in 0.2% SDS in ND96. Each oocyte lysate was transferred to a scintillation vial containing 5 ml Cytoscint scintillation cocktail fluid (MP Biomedicals, Santa Ana, CA). Vials were capped, shaken, and then allowed to sit at room temperature for at least 30 min before scintillation counting in a Beckmann Coulter LS6500 liquid scintillation counter.

KCNQ2/3 [10] = molecular target: T2, KCNQ2/3
Procedure: as §4

GLRA1 = molecular target: T6, GLRA1 (Homo sapiens, UniProt P23415); test: TEVC of glycine receptor GLRA1 expressed in Xenopus oocytes; assay type: cell-based; details: 1 mM, compound alone
T6 sequence (P23415 29-457): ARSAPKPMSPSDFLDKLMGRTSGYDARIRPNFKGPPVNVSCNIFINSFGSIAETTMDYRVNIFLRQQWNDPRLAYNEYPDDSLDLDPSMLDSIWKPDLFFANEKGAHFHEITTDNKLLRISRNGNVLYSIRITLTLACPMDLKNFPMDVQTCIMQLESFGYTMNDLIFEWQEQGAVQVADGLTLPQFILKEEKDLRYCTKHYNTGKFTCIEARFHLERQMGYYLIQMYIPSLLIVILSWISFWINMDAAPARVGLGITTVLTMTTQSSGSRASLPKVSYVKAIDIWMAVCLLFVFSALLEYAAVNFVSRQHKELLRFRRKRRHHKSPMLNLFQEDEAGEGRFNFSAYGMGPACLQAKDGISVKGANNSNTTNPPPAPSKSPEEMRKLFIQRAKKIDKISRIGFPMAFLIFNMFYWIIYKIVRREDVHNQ
Text: as §1, §3

KCNQ1 [11] = molecular target: T4, KCNQ1; details: cited from earlier work
KCNQ3*-R242A = molecular target: T7, KCNQ3*-R242A (Homo sapiens, UniProt O43525, A315T/R242A); test: TEVC of homomeric KCNQ3*-R242A; assay type: cell-based; details: 100 µM
T7 sequence (O43525 1-872 R242A/A315T): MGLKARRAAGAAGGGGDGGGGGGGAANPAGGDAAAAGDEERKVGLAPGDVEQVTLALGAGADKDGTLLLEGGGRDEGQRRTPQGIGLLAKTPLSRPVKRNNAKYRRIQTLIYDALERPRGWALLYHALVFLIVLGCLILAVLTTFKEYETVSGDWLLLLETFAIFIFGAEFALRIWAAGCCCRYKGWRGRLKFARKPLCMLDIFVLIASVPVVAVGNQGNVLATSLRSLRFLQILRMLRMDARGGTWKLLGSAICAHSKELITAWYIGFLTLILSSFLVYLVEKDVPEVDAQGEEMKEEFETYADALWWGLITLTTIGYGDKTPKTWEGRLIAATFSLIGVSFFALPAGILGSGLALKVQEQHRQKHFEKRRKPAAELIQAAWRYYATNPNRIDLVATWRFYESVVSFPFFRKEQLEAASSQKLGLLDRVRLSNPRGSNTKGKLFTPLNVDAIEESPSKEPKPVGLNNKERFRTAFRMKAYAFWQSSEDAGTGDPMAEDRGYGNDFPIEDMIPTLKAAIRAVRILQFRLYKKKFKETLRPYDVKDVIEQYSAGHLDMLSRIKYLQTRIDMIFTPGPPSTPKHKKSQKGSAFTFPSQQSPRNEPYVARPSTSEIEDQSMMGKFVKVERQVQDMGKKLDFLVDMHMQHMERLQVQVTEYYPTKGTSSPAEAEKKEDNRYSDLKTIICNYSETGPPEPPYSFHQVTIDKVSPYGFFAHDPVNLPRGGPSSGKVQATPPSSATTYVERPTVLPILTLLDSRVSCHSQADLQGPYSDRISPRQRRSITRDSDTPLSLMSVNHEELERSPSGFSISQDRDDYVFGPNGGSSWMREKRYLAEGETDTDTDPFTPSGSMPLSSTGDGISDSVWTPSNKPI
Text: We generated cRNA transcripts encoding human KCNQ1, KCNQ2, KCNQ3, KCNQ4, KCNQ5 or GLRA1 (NM_001146040) (GenScript, Piscataway, NJ, USA) by in vitro transcription using the T7 polymerase mMessage mMachine kit (Thermo Fisher Scientific), after vector linearization, from cDNA sub-cloned into plasmids incorporating Xenopus laevis β-globin 5′ and 3′ UTRs flanking the coding region to enhance translation and cRNA stability. We quantified cRNA by spectrophotometry. We generated mutant KCNQ2 and KCNQ3 cDNAs by site-directed mutagenesis using a QuikChange kit (Stratagene, San Diego, CA) and prepared the corresponding cRNAs as above. […]
We performed TEVC at room temperature using an OC-725C amplifier (Warner Instruments, Hamden, CT) and pClamp10 software (Molecular Devices, Sunnyvale, CA) 2–5 days after cRNA injection as described in the section above. […] Currents were recorded in response to voltage pulses between −120 or −80 mV and + 40 mV at 20 mV intervals from a holding potential of −80 mV, to yield current-voltage relationships, current magnitude, and for quantifying activation rate. We analyzed data using Clampfit (Molecular Devices) and Graphpad Prism software (GraphPad, San Diego, CA, USA); values are stated as mean ± SEM. […]

T2 sequence (O43525 whole entry): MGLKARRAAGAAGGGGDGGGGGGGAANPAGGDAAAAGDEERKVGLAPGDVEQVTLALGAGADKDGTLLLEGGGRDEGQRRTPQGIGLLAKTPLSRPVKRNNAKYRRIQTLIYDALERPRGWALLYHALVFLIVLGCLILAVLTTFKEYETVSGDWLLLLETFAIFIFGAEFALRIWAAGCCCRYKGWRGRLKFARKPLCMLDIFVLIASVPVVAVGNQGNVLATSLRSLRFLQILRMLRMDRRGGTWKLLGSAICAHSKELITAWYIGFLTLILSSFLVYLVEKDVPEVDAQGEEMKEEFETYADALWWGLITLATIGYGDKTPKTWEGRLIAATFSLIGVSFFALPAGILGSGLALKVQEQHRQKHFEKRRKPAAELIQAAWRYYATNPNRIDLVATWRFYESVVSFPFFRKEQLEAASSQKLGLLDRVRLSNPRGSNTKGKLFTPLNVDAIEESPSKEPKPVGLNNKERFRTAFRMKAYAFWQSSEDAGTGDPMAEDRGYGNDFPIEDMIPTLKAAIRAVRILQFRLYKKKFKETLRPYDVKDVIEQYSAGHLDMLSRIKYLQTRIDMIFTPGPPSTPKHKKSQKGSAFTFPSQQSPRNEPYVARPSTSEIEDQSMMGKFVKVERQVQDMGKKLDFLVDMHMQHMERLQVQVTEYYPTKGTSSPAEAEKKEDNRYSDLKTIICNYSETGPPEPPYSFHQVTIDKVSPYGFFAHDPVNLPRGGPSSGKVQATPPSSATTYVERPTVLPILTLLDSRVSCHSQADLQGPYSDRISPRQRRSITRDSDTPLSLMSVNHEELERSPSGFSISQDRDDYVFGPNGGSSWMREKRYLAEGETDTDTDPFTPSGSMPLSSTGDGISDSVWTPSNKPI
T2 sequence (O43526 whole entry): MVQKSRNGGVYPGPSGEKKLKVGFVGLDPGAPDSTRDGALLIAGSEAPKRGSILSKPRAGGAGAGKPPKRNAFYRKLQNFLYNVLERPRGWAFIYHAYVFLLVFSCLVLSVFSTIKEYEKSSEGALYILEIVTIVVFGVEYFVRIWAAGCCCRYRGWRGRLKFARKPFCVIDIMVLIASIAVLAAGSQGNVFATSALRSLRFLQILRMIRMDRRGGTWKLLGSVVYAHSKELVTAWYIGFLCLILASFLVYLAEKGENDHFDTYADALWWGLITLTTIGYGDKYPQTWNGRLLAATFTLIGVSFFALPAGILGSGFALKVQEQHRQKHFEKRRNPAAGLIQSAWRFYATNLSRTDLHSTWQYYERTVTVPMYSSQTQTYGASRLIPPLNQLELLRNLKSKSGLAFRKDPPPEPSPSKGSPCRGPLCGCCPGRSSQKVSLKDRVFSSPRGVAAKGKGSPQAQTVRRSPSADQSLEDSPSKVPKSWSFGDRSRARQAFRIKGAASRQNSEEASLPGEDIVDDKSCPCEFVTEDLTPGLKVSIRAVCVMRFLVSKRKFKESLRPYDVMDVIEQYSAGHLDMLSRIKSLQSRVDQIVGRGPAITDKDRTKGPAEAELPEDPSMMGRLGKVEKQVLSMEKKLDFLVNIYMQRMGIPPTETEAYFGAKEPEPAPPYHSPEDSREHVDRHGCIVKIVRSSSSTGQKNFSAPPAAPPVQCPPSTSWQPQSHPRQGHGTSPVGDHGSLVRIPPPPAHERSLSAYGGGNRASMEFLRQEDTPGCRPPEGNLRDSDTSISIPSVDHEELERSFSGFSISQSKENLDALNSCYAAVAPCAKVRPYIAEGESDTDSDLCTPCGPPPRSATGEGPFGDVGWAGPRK

NC(C(=O)O)c1ccc(F)cc1 (stereo not drawn) [4FPG, 4-(fluorophenyl)glycine]
effects on KCNQ5 (KCNQ5 [1]): no effects | KCNQ4 activation and deactivation rates (KCNQ4; 30 µM): speeded KCNQ2 and KCNQ4 activation and slowed their deactivation | EC50 (KCNQ4; ΔV0.5act, read-out: EC50, KCNQ4 activation): 49 ± 12 nM | EC50 (KCNQ2/3 [2]; read-out: EC50, KCNQ2/3 activation): 61 ± 42 nM | KCNQ2 activation and deactivation rates (KCNQ2 [3]; 4FPG 30 µM, 2FPG 100 µM): speeded KCNQ2 and KCNQ4 activation and slowed their deactivation | EC50 (KCNQ2 [3]; wild-type KCNQ2, ΔV0.5act, read-out: EC50, KCNQ2 activation): 69 ± 31 nM | KCNQ1 activation and deactivation rates (KCNQ1 [4]; 30 µM): slowed KCNQ1 deactivation but did not speed its activation | EC50 (KCNQ1 [4]; ΔV0.5act, read-out: EC50, KCNQ1 activation): 90 ± 20 nM | effects on KCNQ3* (KCNQ3* [5]): no effects

NCC1(CC(=O)O)CCCCC1 [gabapentin]
activation of KCNQ2 (KCNQ2 [6]): not KCNQ2 | activation of KCNQ5 (KCNQ5 [7]): activate only KCNQ3 and KCNQ5 | activation of KCNQ3 (KCNQ3* [8]): activate only KCNQ3 and KCNQ5

NCCCC(=O)O [GABA, γ-aminobutyric acid, reference compound]
effects on KCNQ4 (KCNQ4): unable to open | [3H]GABA binding to KCNQ3* (KCNQ3* [9]): bound | activation of KCNQ5 (KCNQ5 [7]): activate only KCNQ3 and KCNQ5 | activation of KCNQ3 (KCNQ3* [8]): activate only KCNQ3 and KCNQ5

NCC(=O)O [glycine, reference compound]
effects on KCNQ5 (KCNQ5 [1]): no effects | effects on KCNQ4 (KCNQ4): unable to open | binding of tritiated ligand to wild-type KCNQ2/3 (KCNQ2/3 [10]; CPM over 30 min): did not | inhibition of GABA binding to wild-type KCNQ2/3 (KCNQ2/3 [10]; cold glycine 100 µM): did not inhibit GABA binding | activation of KCNQ2/3 (KCNQ2/3 [2]): nor does it activate KCNQ2/3; also recorded: no effect | effects on KCNQ2 (KCNQ2 [3]; dose response): unable to open | activation of GLRA1 (GLRA1): robust activation | effects on KCNQ3* (KCNQ3* [5]): no effects

CCOC(=O)Nc1ccc(NCc2ccc(F)cc2)cc1N [retigabine, reference compound]
EC50 (KCNQ2/3 [2]; EC50, KCNQ2/3 activation): 6900 nM and 6870 nM | activation of KCNQ1 (KCNQ1 [11]): does not activate KCNQ1 | effect on nonfunctional KCNQ3*-R242A (KCNQ3*-R242A): awakened neither by 3FMSG nor retigabine

Source: paper PMC6825221, “In silico re-engineering of a neurotransmitter to activate KCNQ potassium channels in an isoform-specific manner” (Communications Biology, 2019)
